SMILES strings stand for the structures. Where only a bound is given, the exact number is not on record here.

The target in one test is BRG-1 (Homo sapiens, UniProt P51532). Nature of the test: ATPase catalytic activity of BRG-1 (ADP-Glo in vitro biochemical assay). The following applies: for BRG1 Max % Inhibition: Table 6.
A further test addresses BRM (Homo sapiens, UniProt P51531). Nature of the test: ATPase catalytic activity of BRM (ADP-Glo in vitro biochemical assay). The note with it: for BRM Max % Inhibition: Table 6.

Chain of BRM (P51531 whole entry): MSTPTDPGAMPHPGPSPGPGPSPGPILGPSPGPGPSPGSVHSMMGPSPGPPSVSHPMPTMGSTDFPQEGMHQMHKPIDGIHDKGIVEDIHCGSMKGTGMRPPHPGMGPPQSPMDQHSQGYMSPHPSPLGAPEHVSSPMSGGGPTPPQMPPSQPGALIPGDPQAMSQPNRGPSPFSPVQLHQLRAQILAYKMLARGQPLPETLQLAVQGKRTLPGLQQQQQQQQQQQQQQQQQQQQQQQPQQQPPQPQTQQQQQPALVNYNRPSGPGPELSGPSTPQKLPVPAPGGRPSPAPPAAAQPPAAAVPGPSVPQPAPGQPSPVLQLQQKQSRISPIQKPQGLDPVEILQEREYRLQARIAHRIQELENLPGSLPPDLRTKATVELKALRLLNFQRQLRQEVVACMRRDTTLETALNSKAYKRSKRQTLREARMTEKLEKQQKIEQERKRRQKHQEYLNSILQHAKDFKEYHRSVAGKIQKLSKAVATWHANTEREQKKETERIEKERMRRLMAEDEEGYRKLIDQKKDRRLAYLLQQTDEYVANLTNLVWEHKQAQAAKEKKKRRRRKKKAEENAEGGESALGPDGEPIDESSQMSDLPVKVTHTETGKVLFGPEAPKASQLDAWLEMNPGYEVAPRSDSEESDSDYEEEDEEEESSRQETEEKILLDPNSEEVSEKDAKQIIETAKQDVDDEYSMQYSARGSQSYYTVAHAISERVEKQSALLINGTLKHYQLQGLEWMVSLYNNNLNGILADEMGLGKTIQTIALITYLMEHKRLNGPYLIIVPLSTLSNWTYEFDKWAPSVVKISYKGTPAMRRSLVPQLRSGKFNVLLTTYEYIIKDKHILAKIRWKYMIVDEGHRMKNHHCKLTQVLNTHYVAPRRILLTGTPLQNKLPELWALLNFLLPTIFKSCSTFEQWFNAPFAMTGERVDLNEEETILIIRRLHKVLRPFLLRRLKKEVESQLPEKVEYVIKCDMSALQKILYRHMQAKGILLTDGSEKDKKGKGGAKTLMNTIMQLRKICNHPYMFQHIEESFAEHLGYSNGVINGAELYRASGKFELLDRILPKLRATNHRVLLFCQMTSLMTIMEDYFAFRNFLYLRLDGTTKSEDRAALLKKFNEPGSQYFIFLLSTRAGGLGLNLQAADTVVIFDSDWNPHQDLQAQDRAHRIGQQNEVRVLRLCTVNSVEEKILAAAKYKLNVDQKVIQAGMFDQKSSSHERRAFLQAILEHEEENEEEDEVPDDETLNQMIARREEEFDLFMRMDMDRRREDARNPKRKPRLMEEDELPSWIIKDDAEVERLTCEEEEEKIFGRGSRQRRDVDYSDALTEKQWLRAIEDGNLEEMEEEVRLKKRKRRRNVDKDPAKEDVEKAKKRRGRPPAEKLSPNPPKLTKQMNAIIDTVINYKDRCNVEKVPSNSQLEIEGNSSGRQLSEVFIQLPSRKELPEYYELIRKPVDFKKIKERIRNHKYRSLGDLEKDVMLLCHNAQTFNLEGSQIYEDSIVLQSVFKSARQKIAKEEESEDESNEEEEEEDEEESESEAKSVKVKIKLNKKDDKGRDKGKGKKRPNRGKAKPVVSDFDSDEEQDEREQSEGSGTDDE
Chain of BRG-1 (P51532 whole entry): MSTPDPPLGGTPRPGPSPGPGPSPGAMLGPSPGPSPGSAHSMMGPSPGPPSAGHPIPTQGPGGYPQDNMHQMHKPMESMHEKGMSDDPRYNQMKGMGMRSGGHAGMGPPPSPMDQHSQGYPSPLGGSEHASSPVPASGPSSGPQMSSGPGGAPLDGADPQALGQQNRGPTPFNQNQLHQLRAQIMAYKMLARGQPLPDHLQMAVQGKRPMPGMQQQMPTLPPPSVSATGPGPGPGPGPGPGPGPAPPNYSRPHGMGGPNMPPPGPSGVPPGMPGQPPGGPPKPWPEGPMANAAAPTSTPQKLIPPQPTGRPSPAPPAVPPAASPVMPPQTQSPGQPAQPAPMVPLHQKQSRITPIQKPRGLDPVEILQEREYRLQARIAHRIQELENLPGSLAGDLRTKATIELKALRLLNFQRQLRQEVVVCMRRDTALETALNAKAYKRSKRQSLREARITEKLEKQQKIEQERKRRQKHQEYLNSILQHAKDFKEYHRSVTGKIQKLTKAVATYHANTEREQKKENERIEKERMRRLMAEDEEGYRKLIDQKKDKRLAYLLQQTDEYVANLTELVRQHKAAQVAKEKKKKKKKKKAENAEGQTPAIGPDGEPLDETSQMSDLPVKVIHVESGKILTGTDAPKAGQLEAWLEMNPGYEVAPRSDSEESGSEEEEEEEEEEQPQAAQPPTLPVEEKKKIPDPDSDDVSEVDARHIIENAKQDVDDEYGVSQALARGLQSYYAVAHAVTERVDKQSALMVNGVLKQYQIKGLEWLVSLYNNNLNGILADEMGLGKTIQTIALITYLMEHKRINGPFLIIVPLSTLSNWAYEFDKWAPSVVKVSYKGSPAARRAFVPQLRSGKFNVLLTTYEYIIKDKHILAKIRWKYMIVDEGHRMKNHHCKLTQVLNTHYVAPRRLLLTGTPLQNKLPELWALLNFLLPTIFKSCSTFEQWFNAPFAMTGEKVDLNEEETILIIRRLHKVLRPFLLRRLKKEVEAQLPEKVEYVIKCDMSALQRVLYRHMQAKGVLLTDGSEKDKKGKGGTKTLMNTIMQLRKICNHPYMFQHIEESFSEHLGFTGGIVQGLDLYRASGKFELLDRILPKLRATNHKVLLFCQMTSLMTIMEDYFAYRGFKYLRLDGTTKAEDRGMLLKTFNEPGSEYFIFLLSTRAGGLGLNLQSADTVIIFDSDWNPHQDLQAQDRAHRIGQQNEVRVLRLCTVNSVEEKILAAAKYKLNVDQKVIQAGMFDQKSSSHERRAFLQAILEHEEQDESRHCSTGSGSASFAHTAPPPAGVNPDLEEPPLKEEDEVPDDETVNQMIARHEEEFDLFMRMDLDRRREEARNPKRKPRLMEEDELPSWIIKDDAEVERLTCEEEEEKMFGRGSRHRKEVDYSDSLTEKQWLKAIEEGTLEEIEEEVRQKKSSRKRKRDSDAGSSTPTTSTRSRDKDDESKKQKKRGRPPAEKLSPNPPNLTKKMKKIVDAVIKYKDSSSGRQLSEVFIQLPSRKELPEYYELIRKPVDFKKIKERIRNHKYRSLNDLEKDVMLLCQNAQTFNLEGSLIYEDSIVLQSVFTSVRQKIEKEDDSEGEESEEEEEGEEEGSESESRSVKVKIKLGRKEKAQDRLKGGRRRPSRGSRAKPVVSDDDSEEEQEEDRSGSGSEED

Regarding `Nc1ccc(C(=O)NCC(=O)Nc2nc(-c3cccc(N4CCS(=O)(=O)CC4)c3)cs2)cc1` [Compound 185, 4-amino-N-(2-((4-(3-(1,1-dioxidothiomorpholino)phenyl)thiazol-2-yl)amino)-2-oxoethyl)benzamide], at BRG-1, the IC50 lay in the range of 0.1 to 1 µM and the “BRG1 Max % Inhibition” value is recorded as over 70%. Further, on BRM, the IC50 lay within 0.1 to 1 µM and the “BRM Max % Inhibition” value is reported as over 80%.
Consider `CN(C)CCNC(=O)Cc1cc(-c2cccc(-c3csc(NC(=O)CNC(=O)c4ccc(N)cc4)n3)c2)ccn1` [Compound 186, 4-amino-N-[2-[[4-[3-[2-[2-[2-(dimethylamino)ethylamino]-2-oxo-ethyl]-4-pyridyl]phenyl]thiazol-2-yl]amino]-2-oxo-ethyl]benzamide], for which, on BRG-1, the IC50 lay within 0.1 to 1 µM and the “BRG1 Max % Inhibition” value is over 95%. Besides, at BRM, the IC50 is 0.1 to 1 µM and the “BRM Max % Inhibition” value was over 95%.
As to `Nc1ccc(C(=O)NCC(=O)Nc2nc(-c3cccc(N4CCC(C(=O)O)CC4)c3)cs2)cc1` [Compound 187, 1-[3-[2-[[2-[(4-aminobenzoyl)amino]acetyl]amino]thiazol-4-yl]phenyl]piperidine-4-carboxylic acid], at BRG-1, the IC50 lay within 0.1 to 1 µM and the “BRG1 Max % Inhibition” value is over 60%. Further, on BRM, the IC50 was in the range of 0.1 to 1 µM and the “BRM Max % Inhibition” value is reported as over 70%.
With `Cc1ccc(-c2csc(NC(=O)CNC(=O)c3ccc(N)cc3)n2)cc1-c1ccncc1` [Compound 188, 4-amino-N-[2-[[4-[4-methyl-3-(4-pyridyl)phenyl]thiazol-2-yl]amino]-2-oxo-ethyl]benzamide], on BRG-1, the concentration for half-maximal inhibition (IC50) was under 0.1 µM and the “BRG1 Max % Inhibition” value was over 80%. Also, on BRM, the IC50 was under 0.1 µM and the “BRM Max % Inhibition” value is listed as over 95%.
Consider `CN(C)CCNc1cc(-c2cccc(-c3csc(NC(=O)CNC(=O)c4ccc(N)cc4)n3)c2)ccn1` [Compound 189, 4-amino-N-[2-[[4-[3-[2-[2-(dimethylamino)ethylamino]-4-pyridyl]phenyl]thiazol-2-yl]amino]-2-oxo-ethyl]benzamide], for which, at BRG-1, the IC50 was 0.1 to 1 µM and the “BRG1 Max % Inhibition” value is recorded as over 90%. On BRM, the IC50 was in the range of 0.1 to 1 µM and the “BRM Max % Inhibition” value was over 90%.
For the compound `CN1CCN(c2cc(-c3cccc(-c4csc(NC(=O)CNC(=O)c5ccc(N)cc5)n4)c3)ccn2)CC1` [Compound 190, 4-amino-N-[2-[[4-[3-[2-(4-methylpiperazin-1-yl)-4-pyridyl]phenyl]thiazol-2-yl]amino]-2-oxo-ethyl]benzamide], on BRG-1, the IC50 was 0.1 to 1 µM and the “BRG1 Max % Inhibition” value is given as over 80%. Further, at BRM, the IC50 is 0.1 to 1 µM and the “BRM Max % Inhibition” value is over 80%.
As for `CN(C)CCN(C)c1cc(-c2cccc(-c3csc(NC(=O)CNC(=O)c4ccc(N)cc4)n3)c2)ccn1` [Compound 191, 4-amino-N-[2-[[4-[3-[2-[2-(dimethylamino)ethyl-methyl-amino]-4-pyridyl]phenyl]thiazol-2-yl]amino]-2-oxo-ethyl]benzamide], on BRG-1, the IC50 was in the range of 0.1 to 1 µM and the “BRG1 Max % Inhibition” value was over 95%. For the same compound, at BRM, the IC50 is under 0.1 µM and the “BRM Max % Inhibition” value is recorded as over 95%.
For the compound `Nc1ccc(C(=O)NCC(=O)Nc2nc(-c3ccc4[nH]ncc4c3)cs2)cc1` [Compound 192], on BRG-1, the IC50 lay within 0.1 to 1 µM and the “BRG1 Max % Inhibition” value is over 90%. On BRM, the IC50 was 0.1 to 1 µM and the “BRM Max % Inhibition” value is over 90%.
For `Nc1cnc(C(=O)NCC(=O)Nc2nc(-c3cccc(-c4ccncc4)c3)cs2)nc1` [Compound 193, 5-amino-N-[2-oxo-2-[[4-[3-(4-pyridyl)phenyl]thiazol-2-yl]amino]ethyl]pyrimidine-2-carboxamide], on BRG-1, the IC50 is 0.1 to 1 µM and the “BRG1 Max % Inhibition” value is listed as over 90%. Besides, on BRM, the IC50 was in the range of 0.1 to 1 µM and the “BRM Max % Inhibition” value is recorded as over 80%.
Consider `Cc1cnccc1-c1cccc(-c2csc(NC(=O)CNC(=O)c3ccc(N)cc3)n2)c1` [Compound 194, 4-amino-N-[2-[[4-[3-(3-methyl-4-pyridyl)phenyl]thiazol-2-yl]amino]-2-oxo-ethyl]benzamide], for which, at BRG-1, the IC50 fell in the range of 0.1 to 1 µM and the “BRG1 Max % Inhibition” value is over 80%. In addition, at BRM, the IC50 was 0.1 to 1 µM and the “BRM Max % Inhibition” value is reported as over 90%.
Turning to `Cc1cc(-c2cccc(-c3csc(NC(=O)CNC(=O)c4ccc(N)cc4)n3)c2)ccn1` [Compound 195, 4-amino-N-[2-[[4-[3-(2-methyl-4-pyridyl)phenyl]thiazol-2-yl]amino]-2-oxo-ethyl]benzamide], on BRG-1, the IC50 is under 0.1 µM and the “BRG1 Max % Inhibition” value is over 95%. On BRM, the IC50 is under 0.1 µM and the “BRM Max % Inhibition” value is over 95%.
`CNCc1cc(-c2cccc(-c3csc(NC(=O)CNC(=O)c4ccc(N)cc4)n3)c2)ccn1` [Compound 196, 4-amino-N-[2-[[4-[3-[2-(methylaminomethyl)-4-pyridyl]phenyl]thiazol-2-yl]amino]-2-oxo-ethyl]benzamide]: on BRG-1, the IC50 was in the range of 0.1 to 1 µM and the “BRG1 Max % Inhibition” value is over 90%. On BRM, the IC50 lay within 0.1 to 1 µM and the “BRM Max % Inhibition” value is reported as over 95%.
On to `Nc1ccc(C(=O)NCC(=O)Nc2nc(-c3cccc(COc4ccncc4)c3)cs2)cc1` [Compound 197, 4-amino-N-[2-oxo-2-[[4-[3-(4-pyridyloxymethyl)phenyl]thiazol-2-yl]amino]ethyl]benzamide], for which, at BRG-1, the concentration for half-maximal inhibition (IC50) is under 0.1 µM and the “BRG1 Max % Inhibition” value is over 80%. Also, on BRM, the half-inhibitory concentration (IC50) is under 0.1 µM and the “BRM Max % Inhibition” value is over 90%.
For `CC(C)(O)c1cccc(-c2csc(NC(=O)CNC(=O)c3ccc(N)cc3)n2)c1` [Compound 198, 4-amino-N-[2-[[4-[3-(1-hydroxy-1-methyl-ethyl)phenyl]thiazol-2-yl]amino]-2-oxo-ethyl]benzamide], on BRG-1, the IC50 lay in the range of 0.1 to 1 µM and the “BRG1 Max % Inhibition” value is over 60%. Also, on BRM, the IC50 lay in the range of 0.1 to 1 µM and the “BRM Max % Inhibition” value was over 80%.
`COc1cc(-c2cccc(-c3csc(NC(=O)CNC(=O)c4ccc(N)cn4)n3)c2)ccn1` [Compound 199, 5-amino-N-[2-[[4-[3-(2-methoxy-4-pyridyl)phenyl]thiazol-2-yl]amino]-2-oxo-ethyl]pyridine-2-carboxamide]: at BRG-1, the IC50 fell in the range of 0.1 to 1 µM and the “BRG1 Max % Inhibition” value is given as over 95%. Moreover, at BRM, the IC50 lay in the range of 0.1 to 1 µM and the “BRM Max % Inhibition” value is recorded as over 95%.
With `CN(CC(=O)O)c1cc(-c2cccc(-c3csc(NC(=O)CNC(=O)c4ccc(N)cc4)n3)c2)ccn1` [Compound 200, 2-[[4-[3-[2-[[2-[(4-aminobenzoyl)amino]acetyl]amino]thiazol-4-yl]phenyl]-2-pyridyl]-methyl-amino]acetic acid], at BRG-1, the IC50 is under 0.1 µM and the “BRG1 Max % Inhibition” value is over 95%. Further, on BRM, the IC50 was under 0.1 µM and the “BRM Max % Inhibition” value is given as over 95%.
Regarding `CNC(=O)CN(C)c1cc(-c2cccc(-c3csc(NC(=O)CNC(=O)c4ccc(N)cc4)n3)c2)ccn1` [Compound 202, 4-amino-N-[2-[[4-[3-[2-[methyl-[2-(methylamino)-2-oxo-ethyl]amino]-4-pyridyl]phenyl]thiazol-2-yl]amino]-2-oxo-ethyl]benzamide], on BRG-1, the IC50 was under 0.1 µM and the “BRG1 Max % Inhibition” value is reported as over 95%. Moreover, on BRM, the IC50 was under 0.1 µM and the “BRM Max % Inhibition” value is over 95%.

Values taken from patent US11497752B2, “Compounds and uses thereof” (Foghorn Therapeutics Inc., priority 2018, dated 2022).
